# In PubChem BioAssay (NCI):
#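 Cells were grown in 96-well plates and exposed to each compound for 48 hours at five concentrations; endpoints were interpolated linearly between bracketing concentrations, or set to the highest concentration if not reached. Abbreviation: GI50, concentration required for 50% inhibition of growth. TGI is the concentration that stops growth completely.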
# Assays:
# Assay in all cases: NCI-60 cell line screen, 48 h
# CCRF-CEM leukemia = test system: CCRF-CEM leukemia
# HOP-62 NSCLC = test system: HOP-62 NSCLC
# NCI-H522 lung = test system: NCI-H522 lung
# OVCAR-3 ovarian = test system: OVCAR-3 ovarian
# OVCAR-4 ovarian = test system: OVCAR-4 ovarian
# SF-268 CNS = test system: SF-268 CNS
# SF-539 CNS = test system: SF-539 CNS
# UACC-62 melanoma = test system: UACC-62 melanoma
# UO-31 renal = test system: UO-31 renal
# MCF7 breast = test system: MCF7 breast
Structure (SMILES),TGI (CCRF-CEM leukemia) [µM],TGI (HOP-62 NSCLC) [µM],TGI (NCI-H522 lung) [µM],TGI (OVCAR-3 ovarian) [µM],TGI (OVCAR-4 ovarian) [µM],TGI (SF-268 CNS) [µM],TGI (SF-539 CNS) [µM],TGI (UACC-62 melanoma) [µM],TGI (UO-31 renal) [µM],GI50 (CCRF-CEM leukemia) [µM],GI50 (HOP-62 NSCLC) [µM],GI50 (NCI-H522 lung) [µM],GI50 (OVCAR-4 ovarian) [µM],GI50 (SF-268 CNS) [µM],GI50 (SF-539 CNS) [µM],GI50 (UACC-62 melanoma) [µM],GI50 (UO-31 renal) [µM],GI50 (OVCAR-3 ovarian) [µM],GI50 (MCF7 breast) [µM],TGI (MCF7 breast) [µM]
Cc1ccc(-c2nnc(-c3nn(-c4ccccc4)c4nc5ccccc5nc34)o2)cc1,64.3,27.3,48.7,28.7,8.79,38.4,9.62,30.8,39,–,–,–,–,–,–,–,–,–,–,–
Cc1cccc(C)c1NC(=O)/C(=N/NC(N)=S)C(C)C(=O)c1ccc(Cl)cc1 (stereo not drawn),> 100,> 100,> 100,> 100,> 100,> 100,> 100,> 100,> 100,–,–,–,–,–,–,–,–,–,–,–
CCN(CC)CC1c2ccccc2C(CNc2ccccc2)N1C (stereo not drawn),> 100,> 100,> 100,> 100,> 100,> 100,–,> 100,> 100,–,–,–,–,–,–,–,–,–,–,–
CC(=O)OC12C=C(C)C(C(C)C1)C1C(=O)N(CCN3CCOCC3)C(=O)C12 (stereo not drawn),> 100,> 100,> 100,–,> 100,> 100,> 100,> 100,> 100,> 100,> 100,> 100,> 100,> 100,> 100,> 100,> 100,–,–,–
O=C1c2cccnc2C(=O)c2c1c(C(=O)NCCCN1CCCCC1)c1ccccn21,> 100,3.18,3.45,1.75,1.32,8.3,3.07,2.51,6.71,3.26,1.08,1.08,0.31,1.25,1.47,0.624,1.42,0.321,–,–
COC(=O)C1(C)CCc2c(OC)ccc(OC)c2C1=O (stereo not drawn),> 100,> 100,> 100,> 100,> 100,> 100,> 100,> 100,> 100,–,–,–,–,–,–,–,–,–,–,–
O=C1/C(=C/c2ccccc2[N+](=O)[O-])Cc2ccccc21,–,17.2,3.13,3.2,29.4,29.6,5.94,3.38,2.68,–,3,1.7,2.95,3.1,2.15,1.64,1.21,1.72,1.38,11.8
COc1cc(C(=O)C/C(CCC(=O)Nc2ccccc2[N+](=O)[O-])=N\NC(N)=O)ccc1O,> 100,> 100,> 100,> 100,–,> 100,> 100,> 100,> 100,–,–,–,–,–,–,–,–,–,–,–
Fc1ccc(C2SCc3nc4ccccc4n32)c(F)c1 (stereo not drawn),> 100,> 100,> 100,> 100,> 100,> 100,> 100,> 100,> 100,–,–,–,–,–,–,–,–,–,–,–
CS(=O)(=O)c1ccc(-c2cc(-c3ccc(S(C)(=O)=O)cc3)[n+](-c3cc(-c4ccc(S(C)(=O)=O)cc4)c([O-])c(-c4ccc(S(C)(=O)=O)cc4)c3)c(-c3ccc(S(C)(=O)=O)cc3)c2)cc1,> 100,> 100,> 100,> 100,> 100,> 100,> 100,> 100,> 100,–,–,–,–,–,–,–,–,–,–,–
O=C1OC(Cc2ccccc2)(N2CCCC2=O)C1c1ccccc1 (stereo not drawn),> 100,> 100,> 100,> 100,> 100,> 100,–,> 100,> 100,–,–,–,–,–,–,–,–,–,–,–
CC/C=C\C/C=C\C/C=C\CCCCCCCC(=O)OCC(O)CO (stereo not drawn),> 72.9,> 100,> 77.1,> 74.5,> 100,> 100,> 100,> 100,24.6,–,–,–,–,–,–,–,–,–,–,–
O=C1CC(c2c[nH]c3ccccc23)C(=O)N1 (stereo not drawn),> 100,> 100,–,> 100,> 100,–,> 100,> 100,> 100,–,–,–,–,–,–,–,–,–,–,–
CN(C)CCCn1c(=O)c2ccccc2c2ccccc21,> 100,> 100,30.6,52.4,70.5,41.4,28.8,33.6,–,22,20.5,12.5,22.3,15.6,11.8,17,–,20.4,7.24,> 100
NC(CSC1c2ccccc2-c2ccccc21)C(=O)O (stereo not drawn),> 100,> 100,–,> 100,> 100,–,> 100,> 100,> 100,–,–,–,–,–,–,–,–,–,–,> 100
CO[C@H]1CC(O[C@@H]2/C(C)=C/C[C@@H]3C[C@@H](C[C@]4(C=C[C@H](C)[C@@H](C5CCCCC5)O4)O3)OC(=O)[C@@H]3C=C(C)[C@@H](O)[C@H]4OC/C(=C\C=C\[C@@H]2C)[C@]43O)O[C@@H](C)C1O[C@H]1C[C@H](OC)[C@@H](O)[C@H](C)O1 (stereo partly drawn),4.4,3.22,–,3.12,2.88,3.18,–,–,2.71,1.88,1.73,–,1.52,1.69,–,–,1.4,1.66,1.82,5.84
COc1cc2c3c(n(C)c(=O)c2cc1OC)-c1cc2c(cc1/C3=C\CCCCN1C(=O)c3ccccc3C1=O)OCO2,43.7,70.4,–,> 100,> 100,> 100,–,37.6,–,9.71,17.4,–,26,9.12,–,6.01,–,38.1,10.8,53.9
O=c1nc(NC2CCCCO2)ccn1CCO (stereo not drawn),> 100,> 100,> 100,> 100,> 100,> 100,> 100,> 100,> 100,–,–,–,–,–,–,–,–,–,–,–
NNC(=O)CS(=O)(=O)Nc1ncccn1,–,> 100,> 100,> 100,> 100,> 100,> 100,> 100,> 100,–,–,–,–,–,–,–,–,–,–,> 100

Structure (SMILES),TGI (CCRF-CEM leukemia) [µM],TGI (HOP-62 NSCLC) [µM],TGI (NCI-H522 lung) [µM],TGI (OVCAR-3 ovarian) [µM],TGI (OVCAR-4 ovarian) [µM],TGI (SF-268 CNS) [µM],TGI (SF-539 CNS) [µM],TGI (UACC-62 melanoma) [µM],TGI (UO-31 renal) [µM],GI50 (CCRF-CEM leukemia) [µM],GI50 (HOP-62 NSCLC) [µM],GI50 (NCI-H522 lung) [µM],GI50 (OVCAR-4 ovarian) [µM],GI50 (SF-268 CNS) [µM],GI50 (SF-539 CNS) [µM],GI50 (UACC-62 melanoma) [µM],GI50 (UO-31 renal) [µM],GI50 (OVCAR-3 ovarian) [µM],GI50 (MCF7 breast) [µM],TGI (MCF7 breast) [µM]
C/C(=C\c1ccc2ccccc2c1)[N+](=O)[O-],5.65,5.49,3,3.37,3.01,3.72,3.07,3.26,2.9,1.89,2.31,1.58,1.65,1.91,1.64,1.76,1.39,1.91,–,–
O=C1NC(=O)C2C(=O)NC(=O)C1C2c1c(Cl)cccc1Cl (stereo not drawn),> 69.6,> 100,> 100,> 100,> 100,> 96.7,> 100,> 100,> 100,–,–,–,–,–,–,–,–,–,–,–
COC(=O)C1CC2CC(=NNC(N)=O)CC2C1 (stereo not drawn),> 100,> 100,> 100,> 100,> 100,> 100,> 100,> 100,> 100,–,–,–,–,–,–,–,–,–,–,–
COc1ccc(-c2cc(Cc3cccs3)c(=O)[nH]n2)cc1,–,–,–,> 100,–,> 100,> 100,> 100,> 100,–,–,–,–,–,–,–,–,–,–,–
N#CC(=C1C=CC(=NO)C=C1)c1ccc(Cl)cc1,9.01,41.6,7.66,13.2,60.4,48,25.4,21,31.7,–,–,–,–,–,–,–,–,–,–,–
C1CCC([PH+](C2CCCCC2)C2CCCCC2[PH+](C2CCCCC2)C2CCCCC2)CC1.[Au].[CH-]1CCCCC1CC1CCCC[N-]1 (stereo not drawn),–,2.58,1.56,1.2,–,2.11,1.41,–,2.61,–,0.349,0.29,–,0.405,0.355,0.249,1.3,0.318,–,–
O=C(NC1CCCCC1)NS(=O)(=O)c1ccc2c(c1)CCC2,> 100,–,> 100,> 100,–,> 100,> 100,> 100,> 100,–,–,–,–,–,–,–,–,–,–,–
N#CC(C#N)=C1NC(=O)CC(=O)N1,> 100,> 100,> 100,> 100,> 100,> 100,> 100,> 100,> 100,–,–,–,–,–,–,–,–,–,–,–
N#CC1(C(N)=O)C(c2ccc(Cl)cc2)CC(=O)CC1c1ccc(Cl)cc1 (stereo not drawn),63.5,–,29.5,33.4,35.6,34.3,34.5,27.2,32,21.5,–,14.2,17.5,18.5,18.4,13.6,16.3,15.8,17.4,31.7
CC1(O)C=CC(=O)C=C1,> 77,> 79.9,33.7,51.4,> 91.1,29.2,54.9,36.2,> 84.5,–,–,–,–,–,–,–,–,–,–,–
Cc1ccc2c(C3Cc4ccccc4N3C(=O)/C=C\C(=O)O)c(C)[nH]c2c1 (stereo not drawn),62.5,> 100,48.6,66.8,> 100,–,> 100,97.6,> 100,–,–,–,–,–,–,–,–,–,–,–
O=C(Nc1ccc(OCc2nnc(-c3ccc(Cl)cc3)o2)c(F)c1)Nc1ccc(Cl)c(C(F)(F)F)c1,–,5.84,7.04,5.01,7.59,12.5,4.34,4.21,4.1,–,0.793,2.27,2.02,3.33,1.91,1.54,1.52,1.7,1.92,7.7
Clc1ccc(Nc2nc3ccccc3nc2-c2cccs2)cc1Cl,> 100,> 100,–,> 100,–,> 100,> 100,> 100,> 100,–,–,–,–,–,–,–,–,–,–,–
O=C1C(=C([O-])c2ccccc2)C(=O)c2ccccc21.O=C1C(=C([O-])c2ccccc2)C(=O)c2ccccc21.[Fe+2],> 100,> 100,> 100,> 100,> 100,> 100,> 100,–,> 100,80.3,> 100,> 100,> 100,> 100,> 100,–,44.8,89.5,–,–
O=C(/C=C\c1cccc([N+](=O)[O-])c1)/C=C/c1cccc([N+](=O)[O-])c1,–,–,10.9,4.32,> 100,9.89,> 100,> 100,4.9,–,–,2.79,> 100,3.08,7.89,14.8,1.7,2.18,0.655,6.68
CCCP1(=O)C=C(C)C(=C(Cl)Cl)C(C)=C1 (stereo not drawn),> 100,> 100,36.5,> 100,> 100,88.3,> 100,> 100,> 100,–,–,–,–,–,–,–,–,–,–,–
CCOC(=O)C1C(=S)NC(=O)C1C#N (stereo not drawn),> 100,> 100,> 100,> 100,> 100,> 100,> 100,> 100,> 100,–,–,–,–,–,–,–,–,–,–,–
COc1cc(N2C(=O)[C@H](O)C2c2ccc(SC)cc2)cc(OC)c1OC (stereo partly drawn),> 100,> 100,–,0.0138,> 100,59.3,–,> 100,–,< 0.01,< 0.01,< 0.01,0.0275,< 0.01,< 0.01,< 0.01,–,< 0.01,< 0.01,> 100
CC(=O)Nc1ccc(SC#N)c2c(NC(C)=O)cccc12,> 90.6,> 100,> 78.4,> 100,> 100,> 100,> 100,> 100,> 100,–,–,–,–,–,–,–,–,–,–,–
